Literature values, collected in patent US20090005367A1, “COMPOSITION AND METHOD FOR TREATING ALCOHOLISM AND OTHER SUBSTANCE ADDICTIONS” (priority 2006, published 2009).
Like-named read-outs stand apart in the source and are kept apart here.

Columns and labels:
[1] = system: aldehyde dehydrogenase; details: blood, after alcohol ingestion
[2] = not given; remark: listed apart in the source
[3] = not given; remark: listed apart in the source
[4] = oral / gastrointestinal tract

SMILES | Elimination Half-Life (parent drug) [h] | also measured
O=C1CN=C(c2ccccn2)c2cc(Br)ccc2N1 [Bromazepam] | 10 to 20 | 
Cc1nnc2n1-c1ccc(Cl)cc1C(c1ccccc1)=NC2 [Alprazolam] | 6 to 12 | 
N#CCCN1C(=O)C(O)N=C(c2ccccc2F)c2cc(Cl)ccc21 (stereo not shown) [Cinolazepam] | 9 | 
Cc1ncc2n1-c1ccc(Cl)cc1C(c1ccccc1F)=NC2 [Midazolam] |  | Elimination Half-Life (h) (parent drug): 3 hours (1.8-6
CCN(CC)C(=S)SSC(=S)N(CC)CC [Disulfiram, bis(diethylthiocarbamoyl)disulfide] |  | concentration of acetaldehyde compared with same amount of alcohol without disulfiram [1]: 5 to 10 times higher; time until full effects occur after ingestion [2]: 12 h; time effective following administration of the last dose ([2]; after last dose): approximately one to two
Fc1ccccc1C1=NCC(=S)N(CC(F)(F)F)c2ccc(Cl)cc21 [Quazepam] | 25 to 100 | 
Cc1nnc2n1-c1ccc(Cl)cc1C(c1ccccc1Cl)=NC2 [Triazolam] | 2 | 
CN1CCN=C(c2ccccc2)c2cc(Cl)ccc21 [Medazepam] | 36 to 200 | 
CN1C(=O)C(O)N=C(c2ccccc2Cl)c2cc(Cl)ccc21 (stereo not shown) [Lormetazepam] | 10 to 12 | 
CN1CCN(/C=C2\N=C3CN=C(c4ccccc4Cl)c4cc([N+](=O)[O-])ccc4N3C2=O)CC1 [Loprazolam] | 6 to 12 | 
CN1[C@@H]2CC[C@H]1C[C@@H](OC(=O)C(CO)c1ccccc1)C2 (stereo partly shown) [Atropine] |  | excreted in the urine as unchanged drug [3]: 30-50%
CN1C(=O)CN=C(C2=CCCCC2)c2cc(Cl)ccc21 [Tetrazepam] | 3 to 26 | 
Clc1ccc2c(c1)C(c1ccccc1)=NCc1nncn1-2 [Estazolam] | 10 to 24 | 
CN1C(=O)CC(=O)N(c2ccccc2)c2cc(Cl)ccc21 [Clobazam] | 12 to 60 | 
O=C1CN=C(c2ccccc2)c2cc([N+](=O)[O-])ccc2N1 [Nitrazepam] | 15 to 38 | 
CNC1=Nc2ccc(Cl)cc2C(c2ccccc2)=[N+]([O-])C1 [Chlordiazepoxide] | 5 to 30 | 
O=C1Nc2ccc(Cl)cc2C(c2ccccc2Cl)=NC1O (stereo not shown) [Lorazepam] | 10 to 20 | 
CC1=CC(=O)N2CC(=O)N(C)c3ccc(Cl)cc3C2(c2ccccc2)O1 (stereo not shown) [Ketazolam] | 2 | 
O=C1CN=C(c2ccccc2Cl)c2cc([N+](=O)[O-])ccc2N1 [Clonazepam] | 18 to 50 | time until full effects occur after ingestion [2]: 1 to 4 h; duration of action ([2]; in vivo): 30 to 40 h; absorption [4]: rapidly and completely absorbed; Elimination Half-Life: 30 to 40 h
